Where two headings read alike, the source gives them in different places.

Holding throughout (format): cell-based
The test system of one data set is CNS SF-539. As to the kind of experiment: COMPARE screening (NCI human cancer cell line screen), cytotoxicity GI50. The procedure, abridged: (§1)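 Cells of the NCI60 panel were exposed to compound at 100, 10, 1, 0.1 and 0.01 μM for 48 h, then stained with sulforhodamine B. Optical density relative to control was plotted as percentage growth versus log10 concentration.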

The next data set concerns colon HCT-116. The description is as above. The procedure, abridged:
as §1

Another data set has as its system lung HOP-62. Described as above. The procedure, abridged:
as §1

In the next data set the test system is melanoma UACC-62. The data set is described as above. The method in brief: as §1
A further data set relates to ovarian OVCAR-3. The description is as above. The procedure, abridged: as §1
The next data set deals with prostate DU-145. The data set is described as above. The method in brief: as §1
In the next data set the test system is renal SN12C. The data set is described as above. The method in brief:
as §1

In a further data set the test system is breast MDA-MB-435. The data set is described as above.
For data set [1], the system named is all human cancer cell lines successfully tested. As to the kind of experiment: NCI screen mean graph midpoint (MGM) for growth inhibition. The procedure, abridged: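 NCI60 panel cells exposed to compound at 100, 10, 1, 0.1 and 0.01 μM for 48 h, then sulforhodamine B staining. Percentage growth versus control plotted against log concentration; MGM is the midpoint across all lines tested.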

The mark [2] stands for this setting: Table 1, average GI50 of all cell lines tested (approximately 55), test range 10^−8 to 10^−4 molar.
Setting [3] is: Table 1, concentration corresponding to 50% growth inhibition, read-out: cytotoxicity (GI50) ovarian OVCAR-3.
Where [4] appears, read: all human cancer cell lines successfully tested.

Protocol for breast MDA-MB-435: COMPARE screening. The compounds described herein were examined for antiproliferative activity against the human cancer cell lines in the National Cancer Institute screen (COMPARE screening), in which the activity of each compound was evaluated with approximately 55 different cancer cell lines of diverse tumor origins. […] Therefore, the MGM value represents an overall assessment of toxicity of the compound across numerous cell lines.

Broadly, the GI50 is the concentration giving 50% growth inhibition. Turning to `COc1ccc2c(c1)C(=O)c1c-2n(CCCn2ccnc2)c(=O)c2cc([N+](=O)[O-])ccc12` [Compound 5br], the GI50 in the data set on CNS SF-539 was under 10 nM; in the data set with colon HCT-116, under 10 nM; in the data set with lung HOP-62 it was under 10 nM; in the data set on melanoma UACC-62 it was under 10 nM; with ovarian OVCAR-3, 20 nM; with prostate DU-145, under 10 nM. The GI50 in the data set with renal SN12C and with breast MDA-MB-435 was under 10 nM each time. Besides, in data set [1] (setting [2]), the “MGM (mean graph midpoint for growth inhibition)” value worked out at 0.019 ± 0.004 µM.

For `COc1ccc2c(c1)C(=O)c1c-2n(CCCn2ccnc2)c(=O)c2ccccc12` [Compound 5bs], the GI50 was 178 nM in the data set on CNS SF-539; 110 nM in the data set with colon HCT-116; 56 nM with lung HOP-62; 71 nM in the data set on melanoma UACC-62; 1660 nM with ovarian OVCAR-3; 204 nM with prostate DU-145. For the same compound, the results for the GI50 with renal SN12C and in the data set with breast MDA-MB-435 were 676 nM and 646 nM, respectively. Also, the “MGM (mean graph midpoint for growth inhibition)” value in [1] (setting [2]) is 0.416 ± 0.134 µM.

With `COc1cc2c3c(n(CCCn4ccnc4)c(=O)c2cc1OC)-c1ccccc1C3=O` [Compound 5e], the GI50 in the data set with CNS SF-539 was under 10 nM; in the data set on colon HCT-116 it was 10 nM; with lung HOP-62 it was under 10 nM; with melanoma UACC-62, under 10 nM; in the data set with ovarian OVCAR-3, under 10 nM; in the data set on prostate DU-145, under 10 nM. Further, the GI50 was under 10 nM in the data set with renal SN12C and 14 nM in the data set on breast MDA-MB-435. Also, the MGM (mean GI50 across cell lines) in [1] (setting [2]) turned out to be 33 nM.

With `O=C1c2ccccc2-c2c1c1ccc([N+](=O)[O-])cc1c(=O)n2CCCn1ccnc1` [Compound 5f], the GI50 in the data set with CNS SF-539 amounted to 16 nM; in the data set with colon HCT-116, 274 nM; with lung HOP-62, 190 nM; in the data set on melanoma UACC-62 it was 12 nM; in the data set on ovarian OVCAR-3, 864 nM; with prostate DU-145, 17 nM. In addition, the values for the GI50 in the data set on renal SN12C and in the data set with breast MDA-MB-435 were 15 nM and 2170 nM, respectively. Besides, the “MGM (mean graph midpoint for growth inhibition)” value in [1] (setting [2]) was 0.370 ± 0.28 µM.

Regarding `COc1cc2c3c(n(CCN4CCOCC4)c(=O)c2cc1OC)-c1ccccc1C3=O` [Compound 5h], the GI50 in the data set with CNS SF-539 is over 100000 nM; in the data set on colon HCT-116 it was 60300 nM; with lung HOP-62, 89100 nM; with melanoma UACC-62 it was 56200 nM; in the data set on ovarian OVCAR-3, over 100000 nM; in the data set on prostate DU-145, over 100000 nM. In addition, the GI50 in the data set with renal SN12C and with breast MDA-MB-435 was over 100000 nM in each case. The same compound showed an MGM (mean GI50 across cell lines) in [1] (setting [2]) of 741000 nM.

Regarding `O=C1c2ccccc2-c2c1c1ccccc1c(=O)n2CCN1CCOCC1` [Compound 5j], the concentration for 50% growth inhibition (GI50) in the data set on CNS SF-539 is 85100 nM; in the data set on colon HCT-116, 36300 nM; in the data set on lung HOP-62, over 100000 nM; with melanoma UACC-62 it was 29500 nM; in the data set with ovarian OVCAR-3, 81300 nM; with prostate DU-145 it was over 100000 nM. For the same compound, the GI50 in the data set with renal SN12C was 93300 nM; with breast MDA-MB-435, over 100000 nM. This compound also returned an MGM (mean GI50 across cell lines) in data set [1] (setting [2]) of 67600 nM.

On to `COc1cc2c3c(n(CCCn4cccn4)c(=O)c2cc1OC)-c1cc2c(cc1C3=O)OCO2` [Compound 5m], for which the GI50 in the data set with CNS SF-539 was determined as 398 nM; in the data set with colon HCT-116 it was 1990 nM; in the data set on lung HOP-62 it was 447 nM; in the data set with melanoma UACC-62, 269 nM; with ovarian OVCAR-3 it was 56200 nM; in the data set with prostate DU-145, 363 nM. Moreover, the GI50 was found to be 316 nM in the data set on renal SN12C and 7080 nM with breast MDA-MB-435. The “MGM (mean graph midpoint for growth inhibition)” value in [1] (setting [2]) amounted to 2.16 ± 0.24 µM.

Turning to `COc1cc2c3c(n(CCCn4cncn4)c(=O)c2cc1OC)-c1cc2c(cc1C3=O)OCO2.Cl` [Compound 5n, 6-{3-[2-(1,2,4)]-Triazolyl-1-propyl}-5,6-dihydro-2,3-dimethoxy-8,9-methylenedioxy-5,11-dioxo-11H-indeno[1,2-c]isoquinoline Hydrochloride], the GI50 in the data set on CNS SF-539 is 288 nM; in the data set on colon HCT-116 it was 1910 nM; with lung HOP-62, 79 nM; with melanoma UACC-62, under 10 nM; in the data set on ovarian OVCAR-3, 61700 nM; in the data set on prostate DU-145 it was 85 nM. Besides, the GI50 with renal SN12C is 85 nM; in the data set on breast MDA-MB-435, over 100000 nM. In [1] (setting [2]), this compound returned an MGM (mean GI50 across cell lines) of 3550 nM.

Regarding `COc1cc2c3c(n(CCCNc4nccs4)c(=O)c2cc1OC)-c1cc2c(cc1C3=O)OCO2.Cl.Cl` [Compound 5o, 6-(3-Thiazolylamino-1-propyl)-5,6-dihydro-2,3-dimethoxy-8,9-methylenedioxy-5,1-dioxo-11H-indeno[1,2-c]isoquinoline Dihydrochloride], the GI50 in the data set on CNS SF-539 is under 10 nM; in the data set on colon HCT-116, under 10 nM; with lung HOP-62 it was under 10 nM; in the data set with melanoma UACC-62, 14 nM; with ovarian OVCAR-3 (setting [3]), 41 nM; with prostate DU-145 it was under 10 nM. The 50% growth inhibitory concentration (GI50) in the data set on renal SN12C and in the data set with breast MDA-MB-435 was under 10 nM throughout. The “MGM (mean graph midpoint for growth inhibition)” value in data set [1] (setting [2]) was found to be 0.112 ± 0.066 µM.

As for `COc1cc2c3c(n(CCCN4CCN(C)CC4)c(=O)c2cc1OC)-c1cc2c(cc1C3=O)OCO2` [Compound 5t], the GI50 turned out to be 17800 nM with CNS SF-539; 1480 nM with colon HCT-116; 18200 nM with lung HOP-62; 15100 nM in the data set on melanoma UACC-62; 15100 nM in the data set with ovarian OVCAR-3; 10700 nM with prostate DU-145. In addition, the GI50 in the data set on renal SN12C is 11500 nM; in the data set on breast MDA-MB-435, over 100000 nM. In data set [1] (setting [2]), the MGM (mean GI50 across cell lines) is 12000 nM.

On to `COc1cc2c3c(n(CCCN4CCC(N)CC4)c(=O)c2cc1OC)-c1cc2c(cc1C3=O)OCO2.Cl.Cl` [Compound 5u, 6-[3-(4-Aminopiperidinyl)-1-propyl]-5,6-dihydro-2,3-dimethoxy-8,9-methylenedioxy-5,11-dioxo-11H-indeno[1,2-c]isoquinoline Dihydrochloride], for which the GI50 in the data set with CNS SF-539 came to 100 nM; in the data set with colon HCT-116, 120 nM; with lung HOP-62, 427 nM; in the data set with melanoma UACC-62 it was 1290 nM; in the data set with ovarian OVCAR-3 (setting [3]), 832 nM; in the data set with prostate DU-145, 182 nM. Moreover, the results for the GI50 in the data set on renal SN12C and in the data set with breast MDA-MB-435 were 257 nM and 1740 nM, respectively. Moreover, the “MGM (mean graph midpoint for growth inhibition)” value in data set [1] (setting [2]) turned out to be 0.766 ± 0.254 µM.

`Nn1c2c(c3ccccc3c1=O)C(=O)c1ccccc1-2` [Compound 5z, 6-Amino-5,6-dihydro-5,11-diketo-11H-indeno[1,2-c]isoquinoline]: the GI50 in the data set with CNS SF-539 (Homo sapiens, CNSSF-539, read-out: cytotoxicity (GI50) CNS SF-539) was 28200 nM; in the data set with colon HCT-116 (Homo sapiens, HCT-116, read-out: cytotoxicity (GI50) colon HCT-116) it was over 50100 nM; in the data set with lung HOP-62 (Homo sapiens, HOP-62, read-out: cytotoxicity (GI50) lung HOP-62), 24500 nM; in the data set on melanoma UACC-62 (Homo sapiens, UACC-62, read-out: cytotoxicity (GI50) melanoma UACC-62), over 50100 nM; with ovarian OVCAR-3 (Homo sapiens, OVCAR-3, read-out: cytotoxicity (GI50) ovarian OVCAR-3) it was over 50100 nM; in the data set on prostate DU-145 (Homo sapiens, DU-145, read-out: cytotoxicity (GI50) prostate DU-145) it was over 50100 nM. For the same compound, the GI50 in the data set with renal SN12C (Homo sapiens, SN12C, read-out: cytotoxicity (GI50) renal SN12C) is over 50100 nM; in the data set on breast MDA-MB-435 (Homo sapiens, MDA-MB-435, read-out: cytotoxicity (GI50) breast MDA-MB-435), over 50100 nM. This compound returned an MGM (mean GI50 across cell lines) in [1] (setting [2]) of 39800 nM.

In the case of `O=C1c2ccccc2-c2c1c1ccccc1c(=O)n2CCNCCn1c2c(c3ccccc3c1=O)C(=O)c1ccccc1-2` [Compound 12a, Bis{(5,6-dihydro-5,11-diketo-11H-indeno[1,2-c]isoquinoline)-6-ethyl}amine], the GI50 with CNS SF-539, with colon HCT-116, with lung HOP-62, in the data set on melanoma UACC-62, with ovarian OVCAR-3 and in the data set with prostate DU-145 was over 25100 nM in each case. The GI50 in the data set on renal SN12C and with breast MDA-MB-435 was over 25100 nM each time. The MGM (mean GI50 across cell lines) in data set [1] (setting [4]) amounted to 18200 nM.

For `O=C1c2ccccc2-c2c1c1ccccc1c(=O)n2CCCNCCCn1c2c(c3ccccc3c1=O)C(=O)c1ccccc1-2` [Compound 12c, Bis{(5,6-dihydro-5,11-diketo-11H-indeno[1,2-c]isoquinoline)-6-propyl}amine], the GI50 was determined as 3630 nM in the data set on CNS SF-539; 550 nM with colon HCT-116; 794 nM in the data set on lung HOP-62; 6610 nM in the data set on melanoma UACC-62; 2950 nM in the data set with ovarian OVCAR-3; 1000 nM in the data set on prostate DU-145. The GI50 worked out at 1550 nM with renal SN12C and 8910 nM in the data set on breast MDA-MB-435. The “MGM (mean graph midpoint for growth inhibition)” value in [1] (setting [4]) was determined as 4.28 ± 1.89 µM.

Values taken from US9796753B2, “N-substituted indenoisoquinolines and syntheses thereof” (Purdue Research Foundation, priority 2005, dated 2017).
